2 molecules from ChEMBL document CHEMBL5335847, “Model of P-Glycoprotein Ligand Binding and Validation with Efflux Substrate Matched Pairs” (J Med Chem, 2024) can be followed below.

In data set [1] the target is Mu-type opioid receptor (Rattus norvegicus, UniProt P33535). Put plainly: Antagonist activity at mu-opioid receptor in rat thalamus membrane assessed as inhibition of DAMGO-stimulated [35S]GTPgammaS binding incubated for 2 hrs by liquid scintillation spectrophotometry. The class given is functional, cell membranes. (GTPγS resists hydrolysis and so accumulates on activated G proteins.)
Mu-type opioid receptor, sequence (P33535 whole entry): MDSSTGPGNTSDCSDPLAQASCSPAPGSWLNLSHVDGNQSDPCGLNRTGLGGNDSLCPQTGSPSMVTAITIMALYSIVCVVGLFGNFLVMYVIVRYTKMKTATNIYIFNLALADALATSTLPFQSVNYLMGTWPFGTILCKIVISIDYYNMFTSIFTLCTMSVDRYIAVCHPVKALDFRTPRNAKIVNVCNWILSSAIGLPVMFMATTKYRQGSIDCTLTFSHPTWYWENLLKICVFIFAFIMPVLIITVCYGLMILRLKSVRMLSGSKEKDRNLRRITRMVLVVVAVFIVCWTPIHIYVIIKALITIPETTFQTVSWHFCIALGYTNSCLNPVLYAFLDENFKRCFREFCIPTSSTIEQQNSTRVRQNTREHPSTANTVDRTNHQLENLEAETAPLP

Data set [2] is described as follows: Apparent permeability of the compound across apical to basolateral side in human Caco-2 cells measured for 2 hrs by HPLC analysis. Type of data set: ADME, cell-based.
Data set [3] has as its target P-gp (ABCB1) (Homo sapiens, UniProt P08183). Briefly: Substrate activity at P-gp in human Caco-2 cells assessed as efflux ratio measured for 2 hrs by HPLC analysis. The class given is ADME, cell-based. On the technique in general: Caco-2 cells form a polarised layer with tight junctions and transporters.

Structures are written as SMILES. A value given as a limit tells only on which side of the number the result lay.

P-gp (ABCB1), sequence (P08183 whole entry): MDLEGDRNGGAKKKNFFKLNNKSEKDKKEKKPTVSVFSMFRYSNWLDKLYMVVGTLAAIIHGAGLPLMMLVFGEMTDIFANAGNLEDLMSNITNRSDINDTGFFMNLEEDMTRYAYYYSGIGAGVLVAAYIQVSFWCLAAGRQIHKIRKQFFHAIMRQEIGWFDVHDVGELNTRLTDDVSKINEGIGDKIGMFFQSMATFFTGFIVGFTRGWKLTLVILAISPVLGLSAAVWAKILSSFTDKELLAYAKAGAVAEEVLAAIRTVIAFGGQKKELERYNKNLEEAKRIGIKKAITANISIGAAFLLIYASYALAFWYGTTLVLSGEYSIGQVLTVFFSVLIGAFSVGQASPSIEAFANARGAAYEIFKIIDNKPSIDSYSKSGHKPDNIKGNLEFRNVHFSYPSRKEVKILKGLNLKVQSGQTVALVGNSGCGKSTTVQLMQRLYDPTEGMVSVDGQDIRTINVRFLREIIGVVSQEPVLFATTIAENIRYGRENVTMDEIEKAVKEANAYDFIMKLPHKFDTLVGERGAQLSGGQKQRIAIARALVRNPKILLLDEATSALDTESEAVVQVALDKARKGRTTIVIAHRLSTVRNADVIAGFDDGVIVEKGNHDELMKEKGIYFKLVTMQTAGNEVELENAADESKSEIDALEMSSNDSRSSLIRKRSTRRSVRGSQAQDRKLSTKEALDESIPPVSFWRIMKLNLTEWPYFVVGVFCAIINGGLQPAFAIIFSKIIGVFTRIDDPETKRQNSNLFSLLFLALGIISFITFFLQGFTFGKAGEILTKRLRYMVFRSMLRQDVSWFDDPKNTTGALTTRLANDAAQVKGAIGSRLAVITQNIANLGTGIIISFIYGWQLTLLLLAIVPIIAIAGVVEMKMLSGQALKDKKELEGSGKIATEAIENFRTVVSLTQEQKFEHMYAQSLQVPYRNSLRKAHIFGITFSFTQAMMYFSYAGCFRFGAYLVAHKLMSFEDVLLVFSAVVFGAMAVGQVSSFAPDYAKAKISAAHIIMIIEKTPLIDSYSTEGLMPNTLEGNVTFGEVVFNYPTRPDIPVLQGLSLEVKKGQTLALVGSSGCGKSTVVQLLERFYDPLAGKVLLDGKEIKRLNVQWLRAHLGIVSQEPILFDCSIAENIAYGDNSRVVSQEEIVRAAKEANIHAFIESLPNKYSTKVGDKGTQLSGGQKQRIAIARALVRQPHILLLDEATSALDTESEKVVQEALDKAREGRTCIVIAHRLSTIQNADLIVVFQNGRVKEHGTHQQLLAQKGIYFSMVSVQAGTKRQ

On to `O=C(N[C@@H]1CC[C@@]2(O)[C@H]3Cc4ccc(O)c5c4[C@@]2(CCN3CC2CC2)[C@H]1O5)c1ccncc1`, for which the Ki in data set [1] is 4.8 nM. Besides, the Papp A→B at 2 h in data set [2] is less than 0.7 ×10⁻⁶ cm/s. Moreover, the efflux ratio at 2 h in data set [3] is greater than 10.

For the molecule `O=C(N[C@@H]1CC[C@@]2(O)[C@H]3Cc4ccc(O)c5c4[C@@]2(CCN3CC2CC2)[C@H]1O5)c1cc2ccccc2cn1`, the Ki in data set [1] stood at 3.5 nM. For the same molecule, the Papp A→B at 2 h in data set [2] was 3 ×10⁻⁶ cm/s. Moreover, the efflux ratio at 2 h in data set [3] was determined as 1.3.

What is called Ki is the dissociation constant of the complex between target and ligand, obtained from inhibition or displacement. By Papp A→B is commonly meant the apparent permeability from the apical to the basolateral side of a cell layer. What is called efflux ratio is the permeability from basolateral to apical divided by that in the opposite direction, in the common usage.
